{"source": "paper PMC11655904", "about": "“[^89Zr]Zr-DFO-TOC: a novel radiopharmaceutical for PET imaging of somatostatin receptor positive neuroendocrine tumors” (EJNMMI Radiopharmacy and Chemistry, 2024)", "key": {"[1]": {"assay": "Benchtop stability of the radiotracer (radio-HPLC and iTLC)", "type": "physicochemical", "settings": "mean ± standard deviation", "description": "To neutralize [^89Zr]Zr-oxalate, an equal volume of [^89Zr]Zr-oxalate and 0.5 M Thermo Scientific HEPES (concentration 99%) buffer were mixed. The pH of the sample was then adjusted using 5.0 M NaOH. For all radiolabeling experiments, 100 µCi (3.7 MBq) of ^89Zr (pH ~ 7.4) was incubated with varying molar quantities of DFO-TOC and 1.0 M HEPES buffer in a final incubation volume of 200 µL. The reaction was incubated on a thermomixer at 37 °C and 800 rpm for 30 min. The molar activity was determined by radiolabeling 1 nmol of DFO-TOC with varying activities of ^89Zr up to 1500 µCi (55.5 MBq) and 1.0 M HEPES buffer in a final incubation volume of 200 µL. Samples were incubated using the same conditions as the radiochemical yield assays. Samples were analyzed using an Agilent (Santa Clara, CA) 1260 Infinity II high-performance liquid chromatography (HPLC) instrument with a LabLogic (Chantilly, VA) Flow-RAM radio-HPLC detector. Radiochemical yields were determined via radio-HPLC using a reversed-phase C18 selectivity column (5 μm particle size, 150 mm length, and 4.6 mm diameter).\nThe samples were assessed for benchtop stability and stability in mouse serum only if a radiochemical yield of 95% or greater was achieved. Benchtop stability was assessed at time points of 30 min, 1 h, 1 day, 2 days, 3 days, 6 days, and 9 days using an Eckert & Ziegler (Valencia, CA) AR-2000 instant Thin Layer Chromatography (iTLC) and radio-HPLC. Diethylenetriamine pentaacetic acid was used as the mobile phase for iTLC, while radio-HPLC used the gradient described previously. Stability in mouse serum was assessed by adding 100 µL of a 200 [drawing 3] […] No further sample purification was conducted before injection on the radio-HPLC. All samples remained on a thermomixer at 37 °C and 800 rpm, and aliquots were removed for analysis by using iTLC and radio-HPLC, after 1 h, 1 day, 2 days, 3 days, 5 days, 6 days, and 9 days."}, "[2]": {"tested_on": "AR42J cells (SSTR2 high expression)", "assay": "Receptor binding and competitive receptor blocking assay, AR42J cells", "type": "cell-based", "method": "(§1) Cells were seeded in Fisherbrand™ 12-well surface-treated culture plates with 1 million cells per well for each cell line and were allowed to adhere overnight under normal cell culture conditions. Samples were not purified to remove excess DFO-TOC. For receptor binding and blocking experiments, each well was incubated with [^89Zr]Zr-DFO-TOC (0.025 nmol DFO-TOC per well, 1 µCi (0.037 MBq) of [^89Zr]) in 1mL of cell media. For receptor blocking experiments,\n(§2) 2.5 nmol unlabeled DFO-TOC was added to each well, in addition to [^89Zr]Zr-DFO-TOC. Culture plates were incubated with the tracer for 1 h, 3 h, 1 day, 3 days, 5 days, and 6 days. At each timepoint, the media was removed and the cells were washed with PBS twice. Cells were detached using 1 mL of 1 M NaOH and collected in a microcentrifuge tube for analysis using a Revvity (Waltham, MA) Wizard2 Gamma Counter. BCA assays were used to estimate protein concentrations per the manufacturer’s instructions.\n(§3) All data was analyzed using GraphPad Prism (San Diego, CA) and is presented as a mean ± standard deviation. Statistical analysis was completed using a paired nonparametric t-test (α = 0.05) to compare cell total binding and cell blocking groups."}, "[3]": {"tested_on": "PC-3 cells (SSTR2 moderate expression)", "assay": "Receptor binding and competitive receptor blocking assay, PC-3 cells", "type": "cell-based", "settings": "2.5 nmol unlabeled DFO-TOC (100x excess) as blocking agent; at 120 h; p = 0.0001; paired nonparametric t-test", "method": "as §1, §2, §3"}, "[4]": {"tested_on": "PANC-1 cells (SSTR2 minimal expression)", "assay": "Receptor binding and competitive receptor blocking assay, PANC-1 cells", "type": "cell-based", "method": "as §1, §2, §3"}, "AR42J cells": {"tested_on": "AR42J cells", "assay": "Internalization assay, AR42J cells", "type": "cell-based", "settings": "0.025 nmol DFO-TOC, 1 µCi per well; time points 30 min, 1 h, 3 h; trypsin and sodium citrate pH 2 strip", "method": "(§4) Cells were seeded in Fisherbrand™ 12-well surface-treated culture plates with 1 million cells per well for each cell line and were allowed to grow overnight under cell culture conditions. For internalization experiments, each well received 0.025 nmol DFO-TOC radiolabeled with 1 µCi (0.037 MBq) of [^89Zr]Zr-DFO-TOC in 1 mL of cell media. Plates were incubated with [^89Zr]Zr-DFO-TOC for 30 min, 1 h, and 3 h. Cells were detached from the wells using 800 µL of 0.05% Gibco trypsin incubated for 5 min. Cells were sedimented using a benchtop centrifuge at 7000 g for 5 min. The supernatant was removed, and the cells were resuspended in 200 µL of 0.1 M Supelco sodium citrate (pH 2) for 5 min. The cells were sedimented using a benchtop microcentrifuge and the supernatant was added to the trypsin. The supernatant and cell pellet activities were determined using the Wizard2 Gamma Counter."}, "PC-3 cells": {"tested_on": "PC-3 cells", "assay": "Internalization assay, PC-3 cells", "type": "cell-based", "method": "as §4"}, "PANC-1 cells": {"tested_on": "PANC-1 cells", "assay": "Internalization assay, PANC-1 cells", "type": "cell-based", "settings": "0.025 nmol DFO-TOC, 1 µCi per well; time points 30 min, 1 h, 3 h; trypsin and sodium citrate pH 2 strip", "method": "as §4"}, "[5]": {"settings": "100 µL of tracer sample (200 µCi, 7.4 MBq) in 400 µL prefiltered mouse serum, 37 °C, 800 rpm, mean ± standard deviation", "description": "To neutralize [^89Zr]Zr-oxalate, an equal volume of [^89Zr]Zr-oxalate and 0.5 M Thermo Scientific HEPES (concentration 99%) buffer were mixed. The pH of the sample was then adjusted using 5.0 M NaOH. For all radiolabeling experiments, 100 µCi (3.7 MBq) of ^89Zr (pH ~ 7.4) was incubated with varying molar quantities of DFO-TOC and 1.0 M HEPES buffer in a final incubation volume of 200 µL. The reaction was incubated on a thermomixer at 37 °C and 800 rpm for 30 min. The molar activity was determined by radiolabeling 1 nmol of DFO-TOC with varying activities of ^89Zr up to 1500 µCi (55.5 MBq) and 1.0 M HEPES buffer in a final incubation volume of 200 µL. […] Samples were analyzed using an Agilent (Santa Clara, CA) 1260 Infinity II high-performance liquid chromatography (HPLC) instrument with a LabLogic (Chantilly, VA) Flow-RAM radio-HPLC detector. Radiochemical yields were determined via radio-HPLC using a reversed-phase C18 selectivity column (5 μm particle size, 150 mm length, and 4.6 mm diameter).\nThe samples were assessed for benchtop stability and stability in mouse serum only if a radiochemical yield of 95% or greater was achieved. Benchtop stability was assessed at time points of 30 min, 1 h, 1 day, 2 days, 3 days, 6 days, and 9 days using an Eckert & Ziegler (Valencia, CA) AR-2000 instant Thin Layer Chromatography (iTLC) and radio-HPLC. […]"}, "SSTR2, AR42J": {"tested_on": "SSTR2, AR42J", "settings": "ref Vaidyanathan et al. [2003], Hofland et al. [1999]; cited from earlier work"}, "[6]": {"settings": "ref Brereton et al. [2015]; Lamberts et al. [1996]; cited from earlier work", "excerpt": "(§5) Significant progress has been made in recent years towards understanding the underlying biology and molecular pathways involved with NETs, particularly the role of somatostatin receptors (SSTRs) and their downstream pathways. SSTRs (SSTR1, 2 A/2B, 3, 4, and 5) belong to a family of G protein-coupled receptors with seven transmembrane-spanning proteins that bind the cyclic peptide somatostatin (SST) (Theodoropoulou and Stalla [2013]). SST regulates cell growth and inhibits hormone secretion in the endocrine and exocrine systems (Brereton et al. [2015]; Ampofo et al. [2020])."}, "SSTR2": {"tested_on": "SSTR2", "design": "method as in Buscail et al. [1994]", "settings": "ref Buscail et al. [1994]; cited from earlier work", "excerpt": "as §5, with “[2020]). Prior research has ...” for “[2020]).”"}}, "note": "Values joined by “and” are separate entries in the source; they are usually repeats but may differ in a detail not shown here. Equal entries are not always repeated. “Also recorded” adds a separate entry of the source.", "data": [{"molecule": "CC(=O)N(O)CCCCCNC(=O)CCC(=O)N(O)CCCCCNC(=O)CCC(=O)N(O)CCCCCNC(=S)Nc1ccc(NC(=S)NCCCCCC(=O)N[C@H](Cc2ccccc2)C(=O)N[C@H]2CSSC[C@@H](C(=O)N[C@H](CO)[C@@H](C)O)NC(=O)[C@H]([C@@H](C)O)NC(=O)[C@H](CCCCN)NC(=O)[C@@H](Cc3c[nH]c4ccccc34)NC(=O)[C@H](Cc3ccc(O)cc3)NC2=O)cc1", "note": "[[^89Zr]Zr-DFO-TOC, metal not drawn]", "values": [{"measurement": "radiochemical yield on the benchtop after 9 days, iTLC", "setting": "[1]; iTLC, diethylenetriamine pentaacetic acid mobile phase", "value": "97 ± 4", "unit": "%"}, {"measurement": "radiochemical yield on the benchtop after 9 days, radio-HPLC", "setting": "[1]; radio-HPLC, C18, 0.1% TFA water/acetonitrile gradient", "value": "89.6% and 90 ± 4%"}, {"measurement": "tracer uptake (total binding) in AR42J cells compared with the other cell lines", "setting": "[2]; 0.025 nmol DFO-TOC, 1 µCi per well, 1 million cells per well, 1 h to 6 days, gamma counter, P < 0.0001 vs PC-3 and p = 0.0001 vs PANC-1 after 1 h", "value": "highest uptake; also recorded: higher uptake than PC-3 and PANC-1 cell lines at all time points"}, {"measurement": "time at which AR42J cell binding reached saturation", "setting": "[2]; 0.025 nmol DFO-TOC, 1 µCi per well, time points 1 h to 6 days", "value": 5, "unit": "days"}, {"measurement": "blocking versus total binding groups, AR42J", "setting": "[2]; 2.5 nmol unlabeled DFO-TOC (100x excess) as blocking agent, after 1 h, p < 0.0001, paired nonparametric t-test", "value": "statistically significant difference"}, {"measurement": "blocking versus total binding groups, PC-3", "setting": "[3]", "value": "statistically significant difference"}, {"measurement": "tracer uptake in PANC-1 cells", "setting": "[4]; 0.025 nmol DFO-TOC, 1 µCi per well, attributed to low SSTR2 expression", "value": "Low"}, {"measurement": "blocking versus total binding groups, PANC-1", "setting": "[4]; 2.5 nmol unlabeled DFO-TOC (100x excess) as blocking agent, all time points, paired nonparametric t-test", "value": "No statistically significant difference"}, {"measurement": "time of maximum cell internalization, AR42J", "setting": "AR42J cells", "value": 3, "unit": "h"}, {"measurement": "time of maximum cell internalization, PC-3", "setting": "PC-3 cells; 0.025 nmol DFO-TOC, 1 µCi per well, time points 30 min, 1 h, 3 h, trypsin and sodium citrate pH 2 strip", "value": 3, "unit": "h"}, {"measurement": "percentage of tracer internalized in PC-3 compared with AR42J and PANC-1", "setting": "PC-3 cells; time points up to 3 h", "value": "higher percentage of the tracer was internalized"}, {"measurement": "time of maximum cell internalization, PANC-1", "setting": "PANC-1 cells", "value": 3, "unit": "h"}, {"measurement": "radiochemical yield in mouse serum after 9 days, radio-HPLC", "setting": "[5]", "value": "89 ± 2", "unit": "%"}]}, {"molecule": "[Tyr3, Thr8]-octreotide", "values": [{"measurement": "earliest time at which SSTR2 internalization was observed", "setting": "SSTR2, AR42J", "value": 2.5, "unit": "min"}]}, {"molecule": "somatostatin [SST]", "values": [{"measurement": "bioactive half-life", "setting": "[6]", "value": "< 1", "unit": "min"}]}, {"molecule": "octreotide", "values": [{"measurement": "receptor affinity for SSTR2", "setting": "SSTR2", "value": "high receptor affinity"}]}]}
